The target in data set [1] is T1, OATP1B1 (Homo sapiens, UniProt Q9Y6L6).
T1 construct: expressed in transfected cells; host or cells: A431
T1 sequence (Q9Y6L6 1-691): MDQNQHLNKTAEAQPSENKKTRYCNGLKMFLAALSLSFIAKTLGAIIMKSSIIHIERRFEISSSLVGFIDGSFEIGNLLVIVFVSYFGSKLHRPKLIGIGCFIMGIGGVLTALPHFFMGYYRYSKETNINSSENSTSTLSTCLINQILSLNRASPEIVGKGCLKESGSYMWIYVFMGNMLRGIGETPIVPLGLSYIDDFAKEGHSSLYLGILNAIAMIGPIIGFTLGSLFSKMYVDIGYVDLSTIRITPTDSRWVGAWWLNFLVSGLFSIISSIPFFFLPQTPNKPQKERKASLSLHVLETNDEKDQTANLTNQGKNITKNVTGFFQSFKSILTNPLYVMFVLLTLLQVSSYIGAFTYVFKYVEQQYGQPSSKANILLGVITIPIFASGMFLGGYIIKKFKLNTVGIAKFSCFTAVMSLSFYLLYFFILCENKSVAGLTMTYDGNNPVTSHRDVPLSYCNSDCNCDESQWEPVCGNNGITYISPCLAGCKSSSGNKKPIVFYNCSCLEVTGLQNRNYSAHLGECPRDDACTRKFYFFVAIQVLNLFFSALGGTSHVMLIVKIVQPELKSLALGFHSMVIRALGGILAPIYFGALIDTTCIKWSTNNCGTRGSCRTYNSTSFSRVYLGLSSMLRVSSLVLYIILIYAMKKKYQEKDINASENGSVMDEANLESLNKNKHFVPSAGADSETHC
Nature of the data set: Inhibition of OATP1B1-mediated disulfopyrene uptake in A431 cells. It is filed as cell-based. Conditions: for inhibition of OATP1B1 in words / decrease in the transport activity of OATP1B1: 25 μM flavonoid; for IC50: disulfopyrene 10 μM, 10 min, HBSS pH 7.4, A431-OATP1B1 cells. As for the experimental part:
Human A431 cells overexpressing OATPs (OATP1B1 or OATP2B1) and their mock‐transfected controls were established earlier.[42], [43] The cells were maintained at 37°C with 5% CO2 in Dulbecco's Modified Eagle Medium (DMEM; Thermo Fischer Scientific, Waltham, MA, USA) supplemented with fetal bovine serum (10%), L‐glutamine (2 mM), penicillin (100 units/mL) and streptomycin (100 μg/mL).
The inhibitory impacts of MYR, AMP, and their sulfate metabolites on OATP1B1 and OATP2B1 were examined using the fluorescent dye substrates disulfopyrene (6,8‐dihydroxy‐1,3‐disulfopyrene) and pyranine, respectively.[42], [43] The day before the transport measurements, A431 cells overexpressing OATP1B1 or OATP2B1 (and their mock‐transfected controls) were seeded onto 96‐well plates at a density of 80 000 cells/well in DMEM (200 μL). Next day, the medium was removed, the cells were washed three times with PBS (pH 7.4, 200 μL) at room temperature, then the cells were pre‐incubated with 50 μL of Hank's Balanced Salt Solution (HBSS, pH 7.4; OATP1B1) or uptake buffer (pH 5.5; OATP2B1) for 5 min at 37°C with or without the flavonoids.[43] The transport reaction was started by adding 50 μL of disulfopyrene‐containing (final concentration: 10 μM) HBSS (OATP1B1 assay), or pyranine‐containing (final concentration: 20 μM) uptake buffer (OATP2B1 assay). After 10 min (OATP1B1) or 15 min (OATP2B1), the transport was stopped by removing the supernatant and washing the cells three times with ice‐cold PBS (200 μL). Then the fluorescence was measured in 200 μL of PBS using an Enspire plate reader (PerkinElmer, Waltham, MA, US) at excitation and emission wavelengths of 460/510 nm. OATP‐dependent transport was determined by subtracting the fluorescence detected in mock control cells from that of OATP‐expressing cells. Transport activity was measured based on the fluorescence signal in the absence of flavonoids (100%). IC50 values were calculated by sigmoidal fitting (Hill1), using the Origin software (version 2018, OriginLab Corporation, Northampton, MA, USA).

In data set [2] the test system is T2, human serum albumin (HSA).
T2 construct: purchased Merck (Darmstadt, Germany) A1653
Put plainly: Ultrafiltration: displacement of the Site I marker warfarin from HSA. It is filed as binding. Conditions: flavonoid 20 μM, warfarin 1 μM, HSA 5 μM, PBS pH 7.4. How it is done:
The impacts of MYR, M3′S, AMP, and A4′S on the albumin‐bound fraction of the Site I marker warfarin were examined with the previously reported ultrafiltration method.[17], [18] Briefly, samples contained warfarin (1 μM) and HSA (5 μM) without or with flavonoids (20 μM) in PBS (pH 7.4). After two washing steps of the filters (Amicon Ultra‐0.5 Centrifugal Filter Units, 30 kDa molecular weight cut‐off; Merck, Darmstadt, Germany) with water then PBS (both 500 μL), samples (500 μL) were centrifuged for 10 min (7500 g, 25°C, fixed angle rotor).
Warfarin was quantified using an HPLC system (Jasco, Tokyo, Japan) with an autosampler (AS‐4050), a binary pump (PU‐4180), a fluorescence detector (Jasco FP‐920), and the ChromNAV2 software. The concentrations of warfarin in the filtrate were directly determined by applying the previously described method.[17], [18] […] The fluorescence detection of warfarin was carried out at 310 and 390 nm excitation and emission wavelengths, respectively.

The conditions of data set [3]: cited from earlier work.
For a further data set, the system named is OATP2B1. On the set-up: method as in PMID 37252098, PMID 28745105. Conditions: cited from earlier work.
Data set [4] has as its system OATP1B1. Conditions: cited from earlier work.
For data set [5] the following is noted: cited from earlier work. This is another data set of the same source.
Details of data set [6]: method as in PMID 26032587. Conditions: double‐blind randomized controlled clinical trial; cited from earlier work.
In another data set the test system is T3, CYP2C19.
T3 construct: purchased Merck (Darmstadt, Germany)
Put plainly: CYP2C19 assay ((S)‐mephenytoin hydroxylation), CypExpress human kit. Type of data set: biochemical. Conditions: probe (S)‐mephenytoin, 20 μM flavonoid, 5 μM substrate, read-out: inhibitory action on CYP2C19‐mediated (S)‐mephenytoin hydroxylation. As for the experimental part:
The isocratic elution was carried out with sodium acetate buffer (6.9 mM, pH 4) and acetonitrile (72:28 v/v%) as the mobile phase. (S)‐Mephenytoin and 4‐hydroxymephenytoin were detected at 230 nm.

The structures appear in SMILES notation. Several values for one entry are separate records, joined by “and”; a condition that tells them apart may be missing. Identical values can stand only once. Like-named read-outs stand apart in the source and are kept apart here.

This is an account of results in publication PMC11440035, “Interaction of myricetin, ampelopsin (dihydromyricetin), and their sulfate metabolites with serum albumin, cytochrome P450 (CYP2C9, 2C19, and 3A4) enzymes, and organic anion‐transporting polypeptides (OATP1B1 and OATP2B1)” (Pharmacology Research & Perspectives, 2024).

For `O=c1c(O)c(-c2cc(O)c(O)c(OS(=O)(=O)O)c2)oc2cc(O)cc(O)c12` [M3′S, myricetin‐3′‐O‐sulfate], at OATP1B1 [1], the “inhibition of OATP1B1 in words” value was “close to complete inhibition”; the IC50 (in general, the concentration at which inhibition is half-maximal) was 1.7 µM and 1.66 µM. For the same compound, the “inhibitory strength on OATP1B1 relative to MYR” value on OATP1B1 [1] (ratio of IC50 values) is on record as “four‐fold stronger”. Besides, the “effect on the filtered fraction of warfarin” value in data set [2] is given as “moderate increases”.

With `O=c1c(O)c(-c2cc(O)c(O)c(O)c2)oc2cc(O)cc(O)c12` [MYR, myricetin], in data set [3] (MYR, rats), the oral bioavailability result is given as “less than 10%”. The “peak plasma concentrations of MYR and its (sulfate and glucuronide) metabolites together” value in data set [3] (rats, per os 100 mg/kg MYR) is 8 µM. In addition, the “inhibitory effects on OATP2B1‐dependent transport of 4′,5′‐dibromofluorescein and estrone 3‐sulfate” value in the data set with OATP2B1 was “only weak inhibitory effects”. On OATP1B1 [1], the “inhibition of OATP1B1 in words” value is “close to complete inhibition” and the half-inhibitory concentration (IC50) stood at 6.4 µM. In addition, in the data set on OATP1B1 [4] (50 μM MYR), the “decrease in the OATP1B1‐mediated transport of dehydroepiandrosterone sulfate and fluvastatin” value is “approximately 35%”. Besides, in the data set on OATP1B1 [4] (read-out: IC50, OATP1B1, 2′,7′‐dichlorofluorescein uptake), the IC50 was 5.8 µM. The “effect on the filtered fraction of warfarin” value in data set [2] is reported as “moderate increases”. For the same compound, the “effect on plasma levels of tolbutamide (CYP2C9 substrate) and midazolam (CYP3A4 substrate)” value in data set [5] (rat experiment) was “increased the plasma levels of tolbutamide”. Moreover, the “effect of peroral co‐administration on docetaxel pharmacokinetics” value in data set [5] (rat study) is “increased the oral bioavailability and peak plasma concentration of the drug”.

On to `O=C1c2c(O)cc(O)cc2O[C@H](c2cc(O)c(O)c(O)c2)[C@H]1O` [AMP, ampelopsin], for which the oral bioavailability result in data set [3] (AMP, rat studies) is “approximately 4%”. In addition, in data set [3] (rats, peroral 100 mg/kg AMP), the “peak plasma concentrations of the aglycone” value was 300 to 500 nM. Also, the “effect in patients with nonalcoholic fatty liver disease” value in data set [6] is “improved glucose and lipid metabolism”. Further, the “decrease in the transport activity of OATP1B1” value at OATP1B1 [1] is recorded as “approximately 40%”. The “effect on the filtered fraction of warfarin” value in data set [2] is “not affected”. For the same compound, the inhibition at 20 μM in the data set on CYP2C19 worked out at 5%.

Take `O=C1c2c(O)cc(O)cc2OC(c2cc(O)c(OS(=O)(=O)O)c(O)c2)C1O` (stereo not shown) [A4′S, ampelopsin‐4′‐O‐sulfate]: the “decrease in the transport activity of OATP1B1” value at OATP1B1 [1] is listed as approximately 70%. The “effect on the filtered fraction of warfarin” value in data set [2] is “not affected”.
